From patent publication EP4775567A1, “IONIZABLE CATIONIC LIPID COMPOUNDS AS WELL AS PREPARATION METHOD THEREFOR AND USE THEREOF” (Scindy Pharmaceutical (Suzhou) Co., Ltd, priority 2023, dated 2025)

Columns and labels:
[1] = Apparent pKa of blank lipid nanoparticles by TNS fluorescence; format: physicochemical; conditions: compound:DSPC:cholesterol:ALC-0159 50:10:38.5:1.5, pH 2 to 11
Experimental: The apparent pKa of lipid nanoparticles is correlated with the efficacy of lipid nanoparticles in delivering nucleic acids (see Jayaraman et al., Angewandte Chemie, International Edition (2012), 51(34), 8529-8533; Semple et al., Nature Biotechnology 28, 172-176 (2010)). The apparent pKa of nanoparticles prepared from different lipid compounds was determined using fluorescence based on 2-(p-toluidino)-6-naphthalenesulfonic acid (TNS). The fluorescent probe has no fluorescence in water but […] emits fluorescence when bound to lipid membranes. Blank lipid nanoparticles were prepared at a molar ratio of ionizable cationic lipid compound (each exemplary compound) : DSPC : cholesterol : 2-[(polyethylene glycol)-2000]-N,N-ditetradecylacetamide (ALC-0159) of 50:10:38.5:1.5. They were diluted in different pH buffer solutions having a pH ranging from 2 to 11. An aqueous TNS solution was added and mixed. Then, the mixtures were added to a 96-well plate (black bottom), respectively. Detection was performed with excitation wavelength at 325 nm and the emission wavelength at 435 nm, with top detection. Measurement was performed 10 times for each well, and the fluorescence intensity was recorded. A pH-fluorescence intensity curve was plotted to determine the apparent pKa.

[2] = Particle size and polydispersity index (PDI) by dynamic light scattering; format: physicochemical; conditions: luciferase mRNA lipid nanoparticles prepared from the compound; 25°C
Experimental: (§1) Luciferase mRNA was diluted in a 10-100 mM sodium citrate buffer solution at pH 4.0, with the concentration of the mRNA solution being 135 µg/ml. A mixed lipid ethanol solution was prepared at a molar ratio of ionizable cationic lipid compound (each exemplary compound) : DSPC: cholesterol : 2-[(polyethylene glycol)-2000]-N,N-ditetradecylacetamide (ALC-0159) of 50:10:38.5:1.5. The mRNA solution and the mixed lipid solution were mixed at a volume ratio of 3:1 in a nanodrug preparation device, followed by ultrafiltration to obtain luciferase mRNA lipid nanoparticles.
(§2) • 1. Determination of particle size and polydispersity index (PDI): The average particle size and PDI of the nanoparticle sample solutions in the examples were determined by dynamic light scattering using Malvern ZetaSizer Nano ZS90. The measurement angle was 90°, the refractive index of the dispersant was 1.330, and the test temperature was 25°C. • 2. Zeta potential: The Zeta potential of the nanoparticle sample solutions in the examples was determined by electrophoretic light scattering (ELS) using Malvern ZetaSizer Nano ZS90. Refractive index of the dispersant: 1.330, Test temperature: 25°C. • 3. Encapsulation Rate: The Encapsulation Rate of luciferase mRNA in lipid nanoparticles was determined using a Quant-it Ribogreen RNA quantitation kit (ThermoFisher Scientific, UK) in accordance with the manufacturer's instructions.

[3] = Zeta potential by electrophoretic light scattering; format: physicochemical; conditions: luciferase mRNA lipid nanoparticles prepared from the compound; 25°C
Experimental: as §1, §2

[4] = Encapsulation Rate of luciferase mRNA in lipid nanoparticles (Quant-it Ribogreen RNA kit); format: physicochemical; conditions: luciferase mRNA in lipid nanoparticles prepared from the compound
Experimental: as §1, §2

HEK 293T cells = assay: In vitro transfection efficiency of luciferase mRNA lipid nanoparticles (luciferase activity); format: cell-based; conditions: 100 ng dose, 96-well plate, 24 h incubation; luciferase mRNA lipid nanoparticles
Experimental: as §1
HEK-293T cells were used to evaluate the in vitro transfection efficiency of lipid nanoparticle compositions prepared from each exemplary compound. HEK293T cells were routinely cultured in DMEM + 10% FBS medium to ensure the cells were in the logarithmic growth phase. One day before transfection, the cells were seeded into a 96-well culture plate at an appropriate cell density and grown overnight. At the time of transfection, the cell confluency needed to reach 70-90%. The lipid nanoparticle compositions prepared from each exemplary compound were diluted into 4 different dose concentrations with DMEM and added to the 96-well cell culture plate, resulting in final concentrations of 400 ng, 200 ng, 100 ng and 50 ng per well, respectively. luciferase plasmid transfected using Lipofectamine 2000 was used as the positive control (PC). After incubation for 24 h in a 5% CO2 incubator at 37°C, the substrate was added to the wells, and the luciferase activity was determined using a microplate reader. […] The luciferase activity of the luciferase mRNA lipid nanoparticles prepared from Compound 1005 in HEK293T cells is shown in Fig. 1.

female Balb/c mice = assay: In vivo transfection efficiency and safety of luciferase mRNA lipid nanoparticles (whole-body live imaging); conditions: tail vein injection, single dose 0.3 mpk, 6 h after administration
Experimental: as §1
6-8 week-old female Balb/c mice were used to evaluate the in vivo transfection efficiency and safety of lipid nanoparticle compositions prepared from each exemplary compound. The lipid nanoparticles prepared from each exemplary compound were administered by tail vein injection at a single dose of 0.3 mpk. At specific time points after administration (e.g., 3 h, 6 h), live imaging of the animals was performed using a PerkinElmer small animal imaging system to determine the bioluminescent signal. The whole-body live imaging of mice at 3 h/6 h after intravenous administration of luciferase mRNA lipid nanoparticles prepared from Compound 1008 is shown in Fig. 2. […] Table 3 Summary of in vitro/in vivo Activity Evaluation of Lipid Nanoparticles Prepared from Compounds

Row | Compound | Apparent pKa [1] | Particle Size [2] | Polydispersity Index (PDI) [2] | Zeta Potential [3] | Encapsulation Rate [4] | HEK 293T Cell Luciferase Activity (HEK 293T cells) | Mouse Whole-Body Average Fluorescence Signal (female Balb/c mice)
1 | CCCCCCCCCC(CCCCCCCC)C(=O)OCC(COC(=O)C(CCCCCCCC)CCCCCCCCC)(COC(=O)C(CCCCCCCC)CCCCCCCCC)NCCOCCN(C)C (stereo not drawn) [Compound 1059] | 5.18 | 72.71 nm | 0.067 | -10.0 mV | 93.0% | 1.32×10^4 RLU | 4.94×10^5 p/s/cm^2/sr
2 | CCCCCCCCCCCCCCCC(CC)C(=O)OCC(COC(=O)C(CC)CCCCCCCCCCCCCCC)(COC(=O)C(CC)CCCCCCCCCCCCCCC)NCCC(=O)NCCN(CC)CC (stereo not drawn) [Compound 1011] | 6.30 | 60.38 nm | 0.193 | 2.31 mV | 91.8% | 8.22×10^7 RLU | 1.29×10^5 p/s/cm^2/sr
3 | CCCCCCCCCCCCCC(CC)C(=O)OCC(COC(=O)C(CC)CCCCCCCCCCCCC)(COC(=O)C(CC)CCCCCCCCCCCCC)NCCC(=O)NCCN(C)C (stereo not drawn) [Compound 1009] | 5.23 | 67.63 nm | 0.126 | 2.60 mV | 92.7% | 6.15×10^7 RLU | 5.99×10^4 p/s/cm^2/sr
4 | CCCCCCCCCCCCCCCC(CC)C(=O)OCC(COC(=O)C(CC)CCCCCCCCCCCCCCC)(COC(=O)C(CC)CCCCCCCCCCCCCCC)NCCC(=O)NCCN(CCC)CCC (stereo not drawn) [Compound 1012] | 6.05 | 80.07 nm | 0.051 | 0.811 mV | 87.4% | 6.61×10^5 RLU | 2.02×10^5 p/s/cm^2/sr
5 | CCCCCCCCCCCCCCCC(CC)C(=O)OCC(COC(=O)C(CC)CCCCCCCCCCCCCCC)(COC(=O)C(CC)CCCCCCCCCCCCCCC)NCCC(=O)OCCN(C)C (stereo not drawn) [Compound 1029] | 5.41 | 77.94 nm | 0.057 | -3.71 mV | 90.6% | 8.23×10^4 RLU | 3.27×10^4 p/s/cm^2/sr
6 | CCCCCCCCCC(CCCCCCCC)C(=O)OCC(COC(=O)C(CCCCCCCC)CCCCCCCCC)(COC(=O)C(CCCCCCCC)CCCCCCCCC)NCCC(=O)NCCN(C)C (stereo not drawn) [Compound 1008] | 6.14 | 73.49 nm | 0.019 | -6.06 mV | 95.1% | 1.86×10^6 RLU | 7.66×10^5 p/s/cm^2/sr

Second part, led by results:

Row | Apparent pKa [1] | Particle Size [2] | Polydispersity Index (PDI) [2] | Zeta Potential [3] | Encapsulation Rate [4] | Compound | HEK 293T Cell Luciferase Activity (HEK 293T cells) | Mouse Whole-Body Average Fluorescence Signal (female Balb/c mice)
7 | 5.11 | 108.1 nm | 0.051 | -3.96 mV | 95.9% | CCCCCCCCCC(CCCCCCCC)C(=O)OCC(COC(=O)C(CCCCCCCC)CCCCCCCCC)(COC(=O)C(CCCCCCCC)CCCCCCCCC)NCCC(=O)NCCN(C)CCCCO (stereo not drawn) [Compound 1118] | 1.48×10^4 RLU | 1.77×10^8 p/s/cm^2/sr
8 | 6.14 | 98.18 nm | 0.049 | -6.05 mV | 97.2% | CCCCCCCCCC(CCCCCCCC)C(=O)OCC(COC(=O)C(CCCCCCCC)CCCCCCCCC)(COC(=O)C(CCCCCCCC)CCCCCCCCC)NCCCCCCN(C)CCCCO (stereo not drawn) [Compound 1120] | 2.35×10^4 RLU | 3.52×10^8 p/s/cm^2/sr
9 | 5.91 | 58.00 nm | 0.082 | 4.57 mV | 100.3% | CCCCCCCCCCCCCCCC(CC)C(=O)OCC(COC(=O)C(CC)CCCCCCCCCCCCCCC)(COC(=O)C(CC)CCCCCCCCCCCCCCC)NC(=O)CCCCN(C)CCCCO (stereo not drawn) [Compound 1113] | 3.43×10^4 RLU | 3.56×10^7 p/s/cm^2/sr
